Measured values taken from patent US20240218066A1, “USE OF ANTI-PD-1 ANTIBODY IN COMBINATION WITH FIRST-LINE CHEMOTHERAPY IN TREATMENT OF ADVANCED NON-SMALL CELL LUNG CANCER” (SHANGHAI JUNSHI BIOSCIENCES CO., LTD., priority 2021, published 2024).

What was measured:
[1] = test system: patients with untreated advanced NSCLC; experiment: Phase III clinical study, safety analysis (SS population)
Protocol: This is a randomized, double-blind, placebo-controlled, multicenter, phase III clinical study for assessing the efficacy and safety of toripalimab (JS001) or placebo in combination with first-line chemotherapy in patients with untreated advanced NSCLC and exploring the population with optimal biomarker prediction.
Toripalimab 240 mg/placebo was administered by intravenous infusion once every three weeks (Q3W) in cycles of 21 days, with treatment continued until the patients met the discontinuation criteria, i.e., recorded progressive disease, unacceptable AEs, investigator-assessed unsuitability for continued treatment, withdrawal of informed consent, 2 years of JS001 treatment, or other reasons as specified in the protocol.
The selection of cisplatin or carboplatin was at the discretion of the investigator.
Safety analysis set (SS): including all patients who received at least one dose of the study drug (JS001/placebo/chemotherapeutic agent).
Safety analysis was performed in SS and crossover treatment analysis sets, where safety data from the double-blind stage of the primary study and the crossover treatment stage were analyzed separately. Safety analyses include drug exposure, compliance, adverse events, laboratory examinations, vital signs, physical examinations, electrocardiogramaminations, ECOG scores, etc.
All safety analyses were based on the SS population (464 patients), including 308 patients in the test group and 156 patients in the control group. […] The primary safety analysis results based on the SS population in the double-blind stage of the primary study are as follows:

[2] = test system: patients with untreated advanced NSCLC; experiment: Phase III clinical study, efficacy assessed by the investigator according to RECIST 1.1; format: in vivo, human; design: reduction of the risk of progression or death, compared to standard chemotherapy / increase of PFS rate at 6 months compared to control group / increase of PFS rate at 12 months compared to control group / increase in ORR compared to control group: concentration or dose not given beside the values
Protocol: About 450 patients with advanced NSCLC not accompanied by EGFR-sensitive mutations and ALK fusions were randomly divided into two groups according to a 2:1 ratio, with the test group receiving toripalimab in combination with first-line standard chemotherapy and the control group receiving placebo in combination with first-line standard chemotherapy. Stratification was performed according to PD-L1 expression (TC≥1% vs TC<1%), smoking status (frequent smoking vs no smoking or little smoking), and pathological type (squamous cell carcinoma vs non-squamous cell carcinoma).
After randomization, the patients were subjected to treatment in the induction stage for 4-6 cycles, during which the patients received toripalimab/placebo+first-line standard chemotherapy. After the induction stage was over, the patients were subjected to treatment in the maintenance stage, during which patients with squamous cell carcinoma continued to receive toripalimab/placebo treatment until progressive disease, and patients with non-squamous cell carcinoma continued to receive toripalimab/placebo+pemetrexed treatment until progressive disease.
Tumor assessments were performed once every 6 weeks for the first 12 months of the study stage according to RECIST 1.1 and iRECIST; after 12 months, tumor assessments were performed every 9 weeks until progressive disease, initiation of a new anti-tumor therapy, intolerable toxicity, withdrawal of informed consent or death, 2 years of treatment with toripalimab, or other reasons as specified in the protocol, whichever occurred first.
Eligible subjects must (1) be patients with histologically and/or cytologically confirmed locally advanced (stage IIIB or IIIC) and stage IV non-small cell lung cancer that is inoperable and cannot receive radical concurrent chemoradiotherapy; (2) have at least one measurable lesion (according to RECIST 1.1); (3) have not received any systemic treatment (patients with recurrence more than 6 months after completion of prior neoadjuvant/adjuvant therapy may also be enrolled); (4) be aged between 18 and 75 years; (5) have ECOG of 0-1; (6) have an expected survival of ≥3 months; and (7) be available to provide tissue specimens for PD-L1 testing.
Unless otherwise specified, the efficacy analysis was based on the ITT set, which was analyzed by groups according to the treatment regimen to which patients were assigned at randomization.
The progression-free survival rate and median progression-free survival of the JS001+first-line standard treatment group and the placebo+first-line standard treatment group at different time points after the start of treatment were estimated by the Kaplan-Meier method, and Kaplan-Meier curves were plotted. The 95% confidence interval for progression-free survival rate at different time points (6 months and 1 year) was estimated using the Greenwood formula. The 95% confidence interval for median progression-free survival was estimated using the Brookmeyer-Crowley method where the log-log function conversion was used to reach normal approximation. Statistical test was performed on the inter-group difference by a stratified log-rank method for the total population. Statistical test was performed on the inter-group difference by a non-stratified log-rank method for the subpopulations. A stratified COX proportional hazards model was used to estimate the inter-group hazard ratio (HR) and the corresponding 95% confidence interval, and the tied events were processed by an exact method. Stratification analysis was performed using 3 stratification factors in the randomization process, including: (1) PD-L1 expression (TC≥1% vs TC<1%); (2) smoking status (frequent smoking vs no smoking or little smoking); and (3) pathological type (squamous cell carcinoma vs non-squamous cell carcinoma).
For analysis of secondary efficacy endpoints OS, DOR, and TTR, the method described above as applied to the primary efficacy endpoint PFS was used. […]

[3] = SS population, double-blind stage
[4] = compared to placebo + chemotherapy
[5] = patients with BOR reaching CR or PR, overall population
[6] = patients with non-squamous cell carcinoma
[7] = patients with non-squamous cell carcinoma, listed as test group
[8] = patients with squamous cell carcinoma
[9] = patients with squamous cell carcinoma, listed as test group

JS001 + standard first-line chemotherapy: toripalimab 240 mg Q3W plus albumin-bound paclitaxel+carboplatin (squamous) or pemetrexed+cisplatin/carboplatin (non-squamous)
SAE: anemia ([1]; SS population): 5.2%
SAE: bone marrow depression ([1]; SS population): 1.0%
SAE: infectious pneumonia ([1]; SS population): 4.9%
SAE: leukopenia ([1]; SS population): 2.9%
SAE: neutropenia ([1]; SS population): 5.5%
SAE: thrombocytopenia ([1]; SS population): 6.8%
TEAE: anemia ([1]; SS population): 88.3%
TEAE: anorexia ([1]; SS population): 32.1%
TEAE: constipation ([1]; SS population): 18.5%
TEAE: elevated aspartate aminotransferase ([1]; SS population): 31.8%
TEAE: fatigue ([1]; SS population): 33.4%
TEAE: fever ([1]; SS population): 20.8%
TEAE: hypothyroidism ([1]; SS population): 14.9%
TEAE: leukopenia ([1]; SS population): 83.1%
TEAE: nausea ([1]; SS population): 31.8%
TEAE: neutropenia ([1]; SS population): 83.4%
TEAE: rash ([1]; SS population): 20.1%
TEAE: thrombocytopenia ([1]; SS population): 68.5%
proportion of SAEs judged by the investigator to be related to the treatment regimen ([1]; SS population): 31.2%
proportion of SAEs occurring during treatment ([1]; SS population): 38.6%
proportion of SAEs of grade 3 or higher judged by the investigator to be related to the treatment regimen ([1]; SS population): 22.4%
proportion of TEAEs of grade 3 or higher as per CTCAE ([1]; SS population): 76.3%
proportion of TEAEs of grade 3 or higher as per CTCAE judged by the investigator to be related to the treatment regimen ([1]; SS population): 71.4%
proportion of patients who experienced at least 1 TEAE [1, 3]: 99.0%
proportion of patients who experienced at least 1 TEAE related to the treatment regimen [1, 3]: 98.1%
effect on chemotherapy-related toxicity (in words) [1, 4]: did not increase chemotherapy-related toxicity
effect on the incidence of adverse events of grade 3 or higher (in words) [1, 4]: did not increase the incidence of adverse events of grade 3 or higher
PFS rate at 6 months ([2]; ITT): 62.3%
PFS rate at 12 months ([2]; ITT): 32.6%
increase of PFS rate at 6 months compared to control group ([2]; ITT): 20.8%
increase of PFS rate at 12 months compared to control group ([2]; ITT): 19.5%
HR for PFS (test vs control) ([2]; ITT population, RECIST 1.1): 0.58
PFS prolonged by, compared to standard chemotherapy ([2]; ITT population, RECIST 1.1): 2.7 months
reduction of the risk of progression or death, compared to standard chemotherapy ([2]; ITT population, RECIST 1.1): 42%
median PFS ([2]; ITT population, RECIST 1.1, interim analysis as of Nov. 17, 2020): 8.3 months
Best overall response: Complete response (CR) ([2]; non-squamous cell carcinoma): 0 N (%)
Best overall response: Deletion ([2]; non-squamous cell carcinoma): 8 (4.9) N (%)
Best overall response: Not evaluable (NE) ([2]; non-squamous cell carcinoma): 0 N (%)
Best overall response: Partial response (PR) ([2]; non-squamous cell carcinoma): 95 (58.6) N (%)
Best overall response: Progressive disease (PD) ([2]; non-squamous cell carcinoma): 5 (3.1) N (%)
Objective response rate (ORR) ([2]; non-squamous cell carcinoma): 95 (58.6) N (%)
DCR ([2]; overall population): 90.9%
DOR prolonged by, compared to control group ([2]; overall population): 4.1 months
HR for DOR (test vs control) ([2]; overall population): 0.56
increase in ORR compared to control group ([2]; overall population): 21.7%
ORR ([2]; overall population, RECIST v1.1): 63.4%
median DOR [2, 5]: 8.3 months
median TTR [2, 5]: 1.5 months
HR for DOR (test vs control) [2, 6]: 0.63
HR for PFS (test vs control) [2, 6]: 0.59
ORR [2, 6]: 58.6%
increase in ORR compared to control group [2, 6]: 32.1%
median DOR (95% confidence interval) [2, 6]: 8.6 (6.9, NE) months
median TTR (95% confidence interval) [2, 6]: 1.4 (1.4, 1.9) months
median PFS ([2]; patients with non-squamous cell carcinoma, RECIST 1.1): 8.4 months
median DOR (95% confidence interval) [2, 7]: 8.6 months
median TTR (95% confidence interval) [2, 7]: 1.4 months
HR for DOR (test vs control) [2, 8]: 0.46
HR for PFS (test vs control) [2, 8]: 0.55
ORR [2, 8]: 68.7%
increase in ORR compared to control group [2, 8]: 9.8%
median DOR (95% confidence interval) [2, 8]: 6.9 (4.5, NE) months
median TTR (95% confidence interval) [2, 8]: 1.5 (1.4, 1.6) months
median PFS ([2]; patients with squamous cell carcinoma, RECIST 1.1): 7.1 months
median DOR (95% confidence interval) [2, 9]: 6.9 months
median TTR (95% confidence interval) [2, 9]: 1.5 months
Best overall response: Complete response (CR) ([2]; squamous cell carcinoma): 0 N (%)
Best overall response: Deletion ([2]; squamous cell carcinoma): 8 (5.4) N (%)
Best overall response: Not evaluable (NE) ([2]; squamous cell carcinoma): 1 (0.7) N (%)
Best overall response: Partial response (PR) ([2]; squamous cell carcinoma): 101 (68.7) N (%)
Best overall response: Progressive disease (PD) ([2]; squamous cell carcinoma): 6 (4.1) N (%)
Objective response rate (ORR) ([2]; squamous cell carcinoma): 101 (68.7) N (%)
